The values that follow come from US12129233B2, “Water-soluble salts of cannabinoids, preparation and uses thereof” (priority 2021, dated 2024).

Structures can show the parent of a compound that is named as a salt.

The term Solubility denotes the concentration that dissolves in the medium under given conditions.

Assay in one series: not given
To be noted: in water; synthesized salts (and cannabinol parent).
For `CCCCCc1cc(O)c2c(c1)OC(C)(C)C1CCC(C)=CC21` (centres unmarked) [drawing 25/drawing 26 1:1, Choline Salt with THC (1:1)], the Solubility is 3000 µg/mL. On the same count and under the same terms, with `CCCCCc1cc(O)c2c(c1)OC(C)(C)C1CCC(C)=CC21` [drawing 25/drawing 27 1:1, L-Lysine Salt with THC (1:1)] the figure was 2000 µg/mL; with `CCCCCc1cc(O)c2c(c1)OC(C)(C)C1CCC(C)=CC21` (centres unmarked) [drawing 25/drawing 29 1:1, Agmatine Salt with THC (1:1)], 200 µg/mL; with `CCCc1cc(O)c2c(c1)OC(C)(C)C1CCC(C)=CC21` (centres unmarked) [drawing 37/drawing 38 1:1, Tetrakis(2-hydroxyethyl)ammonium Salt with Δ^9-Tetrahydrocannabivarin (1:1)], 7000 µg/mL.

For `CCCc1cc(O)c2c(c1)OC(C)(C)C1CCC(C)=CC21` (centres unmarked) [drawing 37/n^−Bu4N^+ 1:1, Tetrabutylammonium Salt with Δ^9-Tetrahydrocannabivarin (1:1)], the Solubility was found to be 200 µg/mL. The same measure, in the same setting: then `CCCCCc1cc(O)c2c(c1)OC(C)(C)c1ccc(C)cc1-2` [drawing 39, Cannabinol, reference compound], with “insoluble”; and `CCCCCc1cc(O)c2c(c1)OC(C)(C)c1ccc(C)cc1-2` [drawing 39/Et4N^+ 1:1, Tetraethylammonium Salt with Cannabinol (1:1)], with 200 µg/mL. Regarding `CCCCCc1cc(O)c2c(c1)OC(C)(C)c1ccc(C)cc1-2` [drawing 39/drawing 41 1:1, Acetylcholine Salt with Cannabinol (1:1)], the Solubility worked out at 1000 µg/mL.

Turning to “Procaine Salt with CBD (1:1) [drawing 17/drawing 22 1:1]”, the Solubility came out at 5000 µg/mL.

With “Procaine Salt with CBD (2:1) [drawing 17/drawing 22 1:2]”, the Solubility is 6000 µg/mL.

The nature of the next series: physchem. The following applies: water.
`CCCCCc1cc(O)c(C/C=C(\C)CCC=C(C)C)c(O)c1` [drawing 35/drawing 36 1:1, 1-Benzylpyridinium cannabigerol salt (1:1)] displayed a Solubility of 1000 µg/mL.

Staying with this series, now noted: water, Solubility.
`CCCCCc1cc(O)c2c(c1)OC(C)(C)C1CCC(C)=CC21` (centres unmarked) [drawing 25/drawing 28 1:1, Meglumine Salt with THC (1:1)]: the Solubility was determined as 9000 µg/mL. `CCCCCc1cc2c(c(O)c1C(=O)O)C1C=C(C)CCC1C(C)(C)O2` (centres unmarked) [drawing 32/drawing 34 1:2, Meglumine Salt with Tetrahydrocannabinolic Acid (2:1)] yielded a Solubility of 20000 µg/mL.

Staying with this series, now noted: water, Solubility, in water; synthesized salts (and cannabinol parent).
Turning to `C=C(C)C1CCC(C)=CC1c1c(O)cc(CCCCC)c(C(=O)O)c1O` (centres unmarked) [drawing 30/drawing 31 1:3, Choline Salt with Cannabidiolic Acid (3:1)], the Solubility stood at 24000 µg/mL. As for `CCCCCc1cc2c(c(O)c1C(=O)O)C1C=C(C)CCC1C(C)(C)O2` (centres unmarked) [drawing 32/drawing 33 1:2, Choline Salt with Tetrahydrocannabinolic Acid (2:1)], the Solubility worked out at 20000 µg/mL.

Assay in the next series: not given
To be noted: in water; parent cannabinoid without base, literature value (footnotes a-f); cited from earlier work.
Consider `C=C(C)[C@@H]1CCC(C)=C[C@H]1c1c(O)cc(CCCCC)cc1O` [Cannabidiol], for which the Solubility is 0.0007^[a] mg/mL. In the case of `C=C(C)[C@@H]1CCC(C)=C[C@H]1c1c(O)cc(CCCCC)c(C(=O)O)c1O` [Cannabidiolic acid], the Solubility is 2.2^[c] mg/mL. On to `CCCCCc1cc(O)c2c(c1)OC(C)(C)C1CCC(C)=CC21` (centres unmarked) [drawing 25, Δ^9-tetrahydrocannabinol], for which the Solubility is 0.0028^[b] mg/mL. For `CCCCCc1cc2c(c(O)c1C(=O)O)C1C=C(C)CCC1C(C)(C)O2` (centres unmarked) [drawing 32, Tetrahydrocannabinolic acid], the Solubility is 0.048^[d] mg/mL.

As to `CCCc1cc(O)c2c(c1)OC(C)(C)C1CCC(C)=CC21` (centres unmarked) [drawing 37, Δ^9-Tetrahydrocannabivarin], the Solubility was 0.009^[f] mg/mL.
